{
  "source": "patent US9642804B2",
  "about": "“Cationic lipids with various head groups for oligonucleotide delivery” (priority 2009, dated 2017)",
  "key": {"[1]": {"test": "Rhesus monkey in vivo toxicity, serum ALT and AST", "design": "species or system Macaca mulatta (rhesus) monkey", "conditions": "ApoB siRNA RDV; 3.6 mg/kilogram siRNA intravenous", "protocol": "(§1) LNPs utilizing Compounds 9 or 12 in the nominal compositions described above, were evaluated for in vivo efficacy and increases in alanine amino transferases (ALT) and aspartate amino transferase (AST) in male or female Macaca mulatta (rhesus) monkeys. The siRNA targets the mRNA transcript for the ApoB gene (Accession # XM 001097404). […] The RDVs (containing siRNA) in PBS vehicle were administered by intravenous injection in the saphenous vein at an injection rate of 20 mL/minute to a dose level of 3.6 mg/kilogram siRNA. The injection volumes were from 1.9 to 2.1 mL/kilogram and monkeys ranged in weight from 2.5 to 4.5 kilograms. Each RDV or PBS control was administered to two monkeys. At multiple days post dose, 1 mL blood samples were drawn from the femoral artery for serum chemistry analysis. Monkeys were fasted overnight prior to blood draws. Serum ALT and AST analysis were performed on the Siemens Advia 1800 Clinical Chemistry Analyzer utilizing the Siemens alanine aminotransferase (Cat# 03039631) and aspartate aminotransferase (Cat# 03039631) reagents. As a measure of efficacy, LDL-C was monitored as a downstream surrogate marker of ApoB mRNA reduction. At eight days post systemic administration, of RDVs containing Compounds 9 or 12, reduced serum levels of LDL-C to less than 50% of pre-dose levels (FIG. 4). The RDV containing Compound 9 reduced LDL-C levels to a greater extent than the RDV containing Compound 12 (ave.: −63% vs. −53%). ALT and AST were elevated relative to predose values in monkeys treated with both Compounds 9 and 12 RDVs (FIG. 4)."}, "cytokines IL-6 and mKC": {"tested_on": "cytokines IL-6 and mKC", "test": "Mouse in vivo cytokine induction 3 hours post injection (plasma, SearchLight array)", "conditions": "Luc siRNA RDV; plasma three hours post dose", "protocol": "(§2) LNPs utilizing Compound 9 or 12, in the nominal compositions described immediately above, were evaluated for in vivo efficacy and induction of inflammatory cytokines in a luciferase mouse model. The siRNA targets the mRNA transcript for the firefly (Photinus pyralis) luciferase gene (Accession # M15077). […] The in vivo luciferase model employs a transgenic mouse in which the firefly luciferase coding sequence is present in all cells. ROSA26-LoxP-Stop-LoxP-Luc (LSL-Luc) transgenic mice licensed from the Dana Farber Cancer Institute are induced to express the Luciferase gene by first removing the LSL sequence with a recombinant Ad-Cre virus (Vector Biolabs). Due to the organo-tropic nature of the virus, expression is limited to the liver when delivered via tail vein injection. Luciferase expression levels in liver are quantitated by measuring light output, using an IVIS imager (Xenogen) following administration of the luciferin substrate (Caliper Life Sciences). Pre-dose luminescence levels are measured prior to administration of the RDVs. Luciferin in PBS (15 mg/mL) is intraperitoneally (IP) injected in a volume of 150 uL. After a four minute incubation period mice are anesthetized with isoflurane and placed in the IVIS. imager. The RDVs (containing siRNA) in PBS vehicle were tail vein injected in a volume of 0.2 mL. Final dose levels ranged from 0.3 to 3 mg/kg siRNA. PBS vehicle alone was dosed as a control. Three hours post dose, mice were bled retro-orbitally to obtain plasma for cytokine analysis. Mice were imaged 48 hours post dose using the method described above. Changes in luciferin light output directly correlate with luciferase mRNA levels and represent an indirect measure of luciferase siRNA activity. In vivo efficacy results are expressed as % inhibition of luminescence relative to pre-dose luminescence levels. Plasma cytokine levels were determined using the SearchLight multiplexed cytokine chemoluminescent array (Pierce/Thermo). Systemic administration of the luciferase siRNA RDVs decreased luciferase expression in a dose dependant manner. […] Compound 12, (Table 1 and FIG. 2). […] However, average cytokine induction was lower in the animals dosed with the Compound 9 RDV, relative to the Compound 12 RDV.(FIG. 1)."}, "[2]": {"tested_on": "mRNA transcript for the ApoB gene", "test": "Rhesus monkey in vivo efficacy, serum LDL-C as surrogate marker of ApoB mRNA reduction", "design": "species or system Macaca mulatta (rhesus) monkey", "conditions": "ApoB siRNA RDV; 3.6 mg/kilogram siRNA intravenous; average of two monkeys", "protocol": "as §1, with “The RDV containing Compound 9 reduced LDL-C levels to a greater extent than the RDV containing Compound 12 (ave.: −63% vs. −53%). ALT and AST were elevated relative to predose values in monkeys treated with both Compounds 9 and 12 RDVs (FIG. 4).” left out"}, "[3]": {"test": "Rat in vivo toxicity, serum ALT and AST", "design": "species or system Sprague-Dawley rat", "conditions": "ApoB siRNA RDV; for LFTs relative to PBS control dosed rats: serum 24 hours after dosing", "protocol": "After LNP administration, rats are placed in cages with normal diet and water present. Six hours post dose, food is removed from the cages. Animal necropsy is performed 24 hours after LNP dosing. Rats are anesthetized under isoflurane for 5 minutes, then maintained under anesthesia by placing them in nose cones continuing the delivery of isoflurane until ex-sanguination is completed. Blood is collected from the vena cava using a 23 guage butterfly venipuncture set and aliquoted to serum separator vacutainers for serum chemistry analysis. Punches of the excised caudate liver lobe are taken and placed in RNA Later (Ambion) for mRNA analysis. Preserved liver tissue was homogenized and total RNA isolated using a Qiagen bead mill and the Qiagen miRNA-Easy RNA isolation kit following the manufacturer's instructions. Liver ApoB mRNA levels were determined by quantitative RT-PCR. Message was amplified from purified RNA utilizing a rat ApoB commercial probe set (Applied Biosystems Cat # RN01499054_ml). The PCR reaction was performed on an ABI 7500 instrument with a 96-well Fast Block. The ApoB mRNA level is normalized to the housekeeping PPIB (NM 011149) mRNA. PPIB mRNA levels were determined by RT-PCR using a commercial probe set (Applied Biosytems Cat. No. Mm00478295_ml). Results are expressed as a ratio of ApoB mRNA/PPIB mRNA. All mRNA data is expressed relative to the PBS control dose. Serum ALT and AST analysis were performed on the Siemens Advia 1800 Clinical Chemistry Analyzer utilizing the Siemens alanine aminotransferase (Cat# 03039631) and aspartate aminotransferase (Cat# 03039631) reagents."}, "[4]": {"tested_on": "mRNA transcript for the firefly (Photinus pyralis) luciferase gene", "test": "Mouse in vivo efficacy, luciferase mouse model (liver bioluminescence, IVIS)", "conditions": "for Average % Inhibition of Bioluminescence: LNP (cationic lipid/cholesterol/PEG-DMG 60/38/2) with Luc siRNA, tail vein, 48 hours post dose, relative to pre-dose", "protocol": "as §2"}, "[5]": {"conditions": "rat serum 24 hours after dosing"}},
  "data": [
    {"smiles": "CCCCCCCC/C=C\\CCCCCCCCOC[C@@H](COCCCCCCO[C@H]1CC[C@@]2(C)C(=CC[C@@H]3C2CC[C@@]2(C)C3CC[C@@H]2[C@H](C)CCCC(C)C)C1)N(C)C", "note": "(stereo partly shown) [Compound 9]", "values": [
      {"measurement": "ALT relative to predose values", "setting": "[1]", "result": "elevated"},
      {"measurement": "AST relative to predose values", "setting": "[1]", "result": "elevated"},
      {"measurement": "Elevation of ALT, comparison of the RDVs", "setting": "[1]", "result": "approximately equivalent"},
      {"measurement": "Average cytokine induction, Compound 9 RDV relative to Compound 12 RDV", "setting": "cytokines IL-6 and mKC", "result": "lower"},
      {"measurement": "Mouse plasma level of IL-6 relative to the PBS control", "setting": "cytokines IL-6 and mKC", "result": "significantly increased"},
      {"measurement": "Mouse plasma level of mKC relative to the PBS control", "setting": "cytokines IL-6 and mKC", "result": "significantly increased"},
      {"measurement": "Reduction of LDL-C levels (ave.)", "setting": "[2]", "result": "−63", "unit": "%"},
      {"measurement": "ALT levels, comparison of the RDVs", "setting": "[3]; [5]", "result": "increased to a greater extent"},
      {"measurement": "LFTs relative to PBS control dosed rats", "setting": "[3]", "result": "An increase in LFTs"},
      {"measurement": "Average % Inhibition of Bioluminescence", "setting": "[4]; 0.1 mg Kg^−1", "result": 80, "unit": "%"},
      {"measurement": "Average % Inhibition of Bioluminescence", "setting": "[4]; 0.3 mg Kg^−1", "result": 89, "unit": "%"},
      {"measurement": "Average % Inhibition of Bioluminescence", "setting": "[4]; 1.0 mg Kg^−1", "result": 91, "unit": "%"},
      {"measurement": "Efficacy in decreasing luciferase expression, comparison of the RDVs", "setting": "[4]; Luc siRNA RDV, Compound 9 RDV versus Compound 12 RDV", "result": "Greater efficacy"}
    ]},
    {"smiles": "CCCCC/C=C\\C/C=C\\CCCCCCCCOCC(CN(C)C)OCCCCCCCCO[C@H]1CC[C@@]2(C)C(=CC[C@H]3[C@@H]4CC[C@H]([C@H](C)CCCC(C)C)[C@@]4(C)CC[C@@H]32)C1", "note": "(stereo partly shown) [Compound 12, S-Octyl CLinDMA, reference compound]", "values": [
      {"measurement": "ALT relative to predose values", "setting": "[1]", "result": "elevated"},
      {"measurement": "AST relative to predose values", "setting": "[1]", "result": "elevated"},
      {"measurement": "Elevation of ALT, comparison of the RDVs", "setting": "[1]", "result": "approximately equivalent"},
      {"measurement": "Elevation of AST, comparison of the RDVs", "setting": "[1]", "result": "elevated to a markedly higher level"},
      {"measurement": "Mouse plasma level of IL-6 relative to the PBS control", "setting": "cytokines IL-6 and mKC", "result": "significantly increased"},
      {"measurement": "Mouse plasma level of mKC relative to the PBS control", "setting": "cytokines IL-6 and mKC", "result": "significantly increased"},
      {"measurement": "Reduction of LDL-C levels (ave.)", "setting": "[2]", "result": "−53", "unit": "%"},
      {"measurement": "AST levels, comparison of the RDVs", "setting": "[3]; [5]", "result": "increased more strongly"},
      {"measurement": "LFTs relative to PBS control dosed rats", "setting": "[3]", "result": "An increase in LFTs"},
      {"measurement": "Average % Inhibition of Bioluminescence", "setting": "[4]; 0.1 mg Kg^−1", "result": 54, "unit": "%"},
      {"measurement": "Average % Inhibition of Bioluminescence", "setting": "[4]; 0.3 mg Kg^−1", "result": 74, "unit": "%"},
      {"measurement": "Average % Inhibition of Bioluminescence", "setting": "[4]; 1.0 mg Kg^−1", "result": 88, "unit": "%"}
    ]}
  ]
}
